# Laboratory results as given in US12502362B2, “Inhibitors of nucleotidyltransferase superfamily enzymes as antibiotics” (priority 2017, dated 2025).
# Structures can show the parent of a compound that is named as a salt. Where two headings read alike, the source gives them in different places.
# Assays:
# [1] = Cytotoxicity assay (CC50), MTS; type: cell-based, human; details: human, HEPDES19 cells
# Procedure: (§1) To further characterize the compounds, the minimal inhibitory concentration (MIC80) were determined for selected compounds. MIC80 is defined as the compound concentration at which ≥80% bacterial growth is inhibited compare to untreated controls. Meanwhile, for the selected compounds, cytotoxicity assays (CC50) were performed on a HepG2-derived hepatoblastoma cell line (HEPDES19). […] For CC50 evaluation, soluble tetrazolium dye (MTS) was used to measure mitochondrial toxicity in a human hepatoblastoma cell line (18). The bacteria (E. coli, S. saprophyticus and A. baumannii) used in MIC80 measurements were the same as that in the primary screening, but for Staphylococcus, S. aureus is used primarily because it is a common pathogen in Staphylococcaeae family, while S. saprophyticus is part of the normal human flora.
# [2] = tested on: HepG2-derived hepatoblastoma cell line (HEPDES19); test: Cytotoxicity assay (CC50), MTS; type: cell-based, human; details: HEPDES19 cells
# Procedure: as §1
# [3] = tested on: Staphylococcus saprophyticus (ATCC BAA-750); test: MIC80 on S. saprophyticus; type: cell-based; details: S. saprophyticus ATCC BAA-750, read-out: MIC80 S. sapro
# Procedure: as §1
# [4] = tested on: Acinetobacter baumannii (Abl, from a patient); test: microbe, parasite or virus in culture; type: cell-based; details: for MIC80: Acinetobacter baumannii, read-out: MIC80 A. baumannii, A. baumannii Ab1, MDR patient isolate; for MIC80 A. baumannii: A. baumannii Ab1, MDR patient isolate
# Procedure: as §1
# E. coli (ATCC 35218) = test: microbe, parasite or virus in culture; type: cell-based; details: for MIC80: Escherichia coli, ATCC35218, read-out: MIC80 E. coli, E. coli ATCC 35218; for MIC80 E. coli: E. coli ATCC 35218
# Procedure: as §1
# S. aureus (ATCC 29213) = test: MIC80 on S. aureus; type: cell-based, Staphylococcus aureus; details: ≥80% growth inhibition; for MIC80: Staphylococcus aureus, ATCC 29213 / MSSA, read-out: MIC80 S. aureus, S. aureus ATCC 29213 (MSSA); for MIC80 S. aureus: S. aureus ATCC 29213 (MSSA)
# Procedure: as §1
# [5] = tested on: S. aureus and/or S. saprophyticus; test: MIC80 on S. aureus and/or S. saprophyticus; type: cell-based; details: read-out: MIC80 against S. aureus and/or S. saprophyticus
# Procedure: as §1, with “(HEPDES19). […] For the MIC80 measurements, a 1.5 fold dilution series of the compounds was prepared in Mueller-Hinton II broth.” for “(HEPDES19).”, “flora. S. aureus (ATCC 29213) is methicillin-sensitive Staphylococcus aureus (MSSA) strain and it was used as a model strain to measure the MIC80.” for “flora.”
# Klebsiella pneumonia = test: Antibiotic susceptibility of Klebsiella pneumonia strains; type: cell-based
# From the text: (§2) All these MDR-bacteria are at least resistant to two classes of the antibiotics among five groups and/or specific antibiotics including quinolones/fluorquinolones, carbapenems, cephalosporins, aminoglycosides and piperacillin-tazobactam.
# Citrobacter koseri = test: Antibiotic susceptibility of Citrobacter koseri strain; type: cell-based; details: Ck1 (Citrobacter koseri)
# From the text: as §2
# [6] = tested on: MDR Acinetobacter baumannii; type: cell-based
# From the text: as §2
# MDR E. coli = type: cell-based
# From the text: as §2
# Morganella morganii = test: Antibiotic susceptibility of Morganella morganii strain; type: cell-based; details: Mm1 (Morganella morganii)
# From the text: as §2
# [7] = HepG2-derived hepatoblastoma cell line (HEPDES19)
# [8] = Staphylococcus saprophyticus, ATCCBAA750
Compound,"CC50 [1, 7]",CC50 [2],"MIC80 [3, 8]",MIC80 [4],MIC80 (E. coli (ATCC 35218)),MIC80 (S. aureus (ATCC 29213)),MIC80 [5],MIC80 E. coli (E. coli (ATCC 35218)),further results
O=c1c(O)ccc(-c2ccccc2)cc1O [Compound 262],> 50 µM,57 µM,19.8 µM,100 µM,66.7 µM,19.8 µM,< 20 µM,–,–
Cc1cc(O)c(=O)c(O)cc1C(=O)c1cccs1 [Compound 308],< 50 µM,26 µM,29.6 µM,32.1 µM,< 30 µM,44.4 µM,–,24.7 µM,–
O=c1c(Br)cc(Br)cc(Br)c1O [Compound 350],< 50 µM,45 µM,–,100 µM,100 µM,2.6 µM,< 20 µM,–,–
"CO/N=C(\C(=O)N[C@@H]1C(=O)N2C(C(=O)[O-])=C(C[N+]3(C)CCCC3)CS[C@H]12)c1csc(N)n1 [FEP, Cefepime]",–,–,–,–,–,–,–,–,Antibiotic susceptibility (Klebsiella pneumonia; Kp1 (Klebsiella pneumonia)): R; Antibiotic susceptibility (Klebsiella pneumonia; Kp6 (Klebsiella pneumonia)): R; Antibiotic susceptibility (Citrobacter koseri): S; Antibiotic susceptibility ([6]; Ab1 (Acinetobacter baumannii)): R; Antibiotic susceptibility ([6]; Ab2 (Acinetobacter baumannii)): R; Antibiotic susceptibility ([6]; Ab3 (Acinetobacter baumannii)): R; Antibiotic susceptibility ([6]; Ab4 (Acinetobacter baumannii)): R; Antibiotic susceptibility ([6]; Ab5 (Acinetobacter baumannii)): R; Antibiotic susceptibility (MDR E. coli; Ec1 (E. coli)): R; Antibiotic susceptibility (MDR E. coli; Ec2 (E. coli)): R; Antibiotic susceptibility (MDR E. coli; Ec3 (E. coli)): R; Antibiotic susceptibility (MDR E. coli; Ec4 (E. coli)): R; Antibiotic susceptibility (MDR E. coli; Ec5 (E. coli)): R; Antibiotic susceptibility (Morganella morganii): S
O=C(Oc1cccccc1=O)c1ccccc1 [Compound 62],> 50 µM,–,10.3 µM,83.4 µM,111 µM,19.8 µM,< 20 µM,–,–
"O=c1cc(Cc2ccc(Br)cc2)c2cccnc2n1O [Compound 149, 4-[(4-bromophenyl)methyl]-1-hydroxy-1,8-naphthyridin-2-one hydrobromide]",–,–,2.5 µM,–,> 100 µM,–,–,–,–
Cc1cc(O)c(O)c(=O)c(O)c1 [Compound 272],10 µM,–,–,< 30 µM,44.4 µM,–,–,–,MIC80 A. baumannii [4]: 29.6 µM
O=C(Oc1cccccc1=O)c1ccc([N+](=O)[O-])cc1 [Compound 51],> 50 µM,56 µM,15.1 µM,–,167 µM,16.5 µM,< 20 µM,–,–
CC1=C(C#N)C(O)=NC(=O)/C1=C\c1ccc(-c2ccccc2)o1 [Compound 140],< 50 µM,42 µM,12.7 µM,–,> 100 µM,3.9 µM,< 20 µM,–,–
Ampicillin-Sulbactam [SAM],–,–,–,–,–,–,–,–,Antibiotic susceptibility (Klebsiella pneumonia; Kp1 (Klebsiella pneumonia)): R; Antibiotic susceptibility (Klebsiella pneumonia; Kp6 (Klebsiella pneumonia)): R; Antibiotic susceptibility ([6]; Ab1 (Acinetobacter baumannii)): S; Antibiotic susceptibility ([6]; Ab2 (Acinetobacter baumannii)): S; Antibiotic susceptibility ([6]; Ab3 (Acinetobacter baumannii)): S; Antibiotic susceptibility ([6]; Ab4 (Acinetobacter baumannii)): S; Antibiotic susceptibility ([6]; Ab5 (Acinetobacter baumannii)): I; Antibiotic susceptibility (MDR E. coli; Ec1 (E. coli)): R; Antibiotic susceptibility (MDR E. coli; Ec2 (E. coli)): I; Antibiotic susceptibility (MDR E. coli; Ec3 (E. coli)): I; Antibiotic susceptibility (MDR E. coli; Ec4 (E. coli)): R; Antibiotic susceptibility (MDR E. coli; Ec5 (E. coli)): R; Antibiotic susceptibility (Morganella morganii): R
"CC1(C)S[C@@H]2[C@H](NC(=O)[C@H](N)c3ccccc3)C(=O)N2[C@H]1C(=O)O [AMP, Ampicillin]",–,–,–,–,–,–,–,–,Antibiotic susceptibility (Klebsiella pneumonia; Kp1 (Klebsiella pneumonia)): R; Antibiotic susceptibility (Klebsiella pneumonia; Kp6 (Klebsiella pneumonia)): R; Antibiotic susceptibility ([6]; Ab1 (Acinetobacter baumannii)): R; Antibiotic susceptibility ([6]; Ab2 (Acinetobacter baumannii)): R; Antibiotic susceptibility ([6]; Ab3 (Acinetobacter baumannii)): R; Antibiotic susceptibility ([6]; Ab4 (Acinetobacter baumannii)): R; Antibiotic susceptibility ([6]; Ab5 (Acinetobacter baumannii)): R; Antibiotic susceptibility (MDR E. coli; Ec1 (E. coli)): R; Antibiotic susceptibility (MDR E. coli; Ec2 (E. coli)): R; Antibiotic susceptibility (MDR E. coli; Ec3 (E. coli)): R; Antibiotic susceptibility (MDR E. coli; Ec4 (E. coli)): R; Antibiotic susceptibility (MDR E. coli; Ec5 (E. coli)): R; Antibiotic susceptibility (Morganella morganii): R
Cc1cc(O)c(=O)c(O)cc1C(=O)c1ccccc1O [Compound 311],< 50 µM,32 µM,–,44.4 µM,< 30 µM,66.7 µM,–,29.6 µM,–
Cc1cc(O)c(=O)c(O)cc1C(=O)C1CCCCC1 [Compound 120],< 50 µM,–,–,83.4 µM,44.4 µM,19.8 µM,< 20 µM,–,–
CC(C)C(CO)n1cc(C(=O)O)c(=O)c2cc(Cc3cccc(Cl)c3F)c(F)cc21 (stereo not drawn) [Compound 75],–,28 µM,–,–,–,–,–,100 µM,MIC80 [3]: 15.1 µM; MIC80 S. aureus (S. aureus (ATCC 29213)): 8.8 µM
"O=c1cc(-c2ccccc2)c2cccnc2n1O [Compound 154, 1-hydroxy-4-phenyl-1,8-naphthyridin-2-one]",4 µM,–,17.8 µM,–,< 30 µM,–,< 20 µM,21.9 µM,–
O=c1ccccc(Br)c1O [Compound 54],> 50 µM,–,14.9 µM,44.4 µM,70.4 µM,16.1 µM,< 20 µM,–,–
O=c1ccc2ccccc2n1O [Compound 43],> 50 µM,≥ 100 µM,11.4 µM,–,111 µM,13.2 µM,< 20 µM,–,–
O=c1cccccc1O [Compound 53],–,≥ 100 µM,–,–,–,–,–,>100 µM,MIC80 [3]: 8.8 µM; MIC80 S. aureus (S. aureus (ATCC 29213)): 11.7 µM
Cc1cc(O)c(=O)c(O)cc1C(=O)C1CC1 [Compound 310],> 50 µM,–,44.4 µM,< 30 µM,< 30 µM,–,–,29.6 µM,MIC80 A. baumannii [4]: 29.6 µM
CC(C)c1ccc(O)c(=O)c(O)c1 [Compound 46],–,–,29.6 µM,100 µM,44.4 µM,19.8 µM,< 20 µM,–,CC50 [1]: < 50 µM
